Values of other authors in US9707273B2, “Peptides for use in the topical treatment of retinal neurodegenerative diseases, in particular in early stages of diabetic retinopathy and other retinal diseases in which neurodegeneration plays an essential role” (FUNDACIÓ HOSPITAL UNIVERSITARI VALL D'HEBRON—INSTITUT DE …, priority 2013, dated 2017).

Settings: administered in the form of eye drops; Aiello et al. 2008

## Cc1cc(-c2cc(O)ccc2Cl)cc2nnc(Nc3ccc(OCCN4CCCC4)cc3)nc12 [TG100572, 4-chloro-3-(5-methyl-3-{[4-(2-pyrrolidin-I-ylethoxy)phenyl]amino}-1,2,4-benzotriazin-7-yl)phenol]
  reaching the target in the retina after eye drops: able to reach the target in the retina
